Among the data in ChEMBL document CHEMBL4602696, “LMP2 Inhibitors as a Potential Treatment for Alzheimer's Disease” (J Med Chem, 2020) are IC50 values, retold here.

Each structure is given as a SMILES string. Bounds are passed on as bounds.

Experiment [1] addresses T1, Proteasome subunit beta type-9 (Homo sapiens, UniProt P28065).
T1 sequence (P28065 whole entry): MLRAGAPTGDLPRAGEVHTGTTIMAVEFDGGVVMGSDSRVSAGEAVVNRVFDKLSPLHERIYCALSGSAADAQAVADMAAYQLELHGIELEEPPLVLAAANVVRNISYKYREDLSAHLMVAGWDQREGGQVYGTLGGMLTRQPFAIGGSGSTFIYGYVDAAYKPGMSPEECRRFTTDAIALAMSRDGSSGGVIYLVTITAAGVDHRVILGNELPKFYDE
The experiment is described as follows: Inhibition of LMP2 in human 20S immunoproteasome using Ac-PAL-AMC as substrate after 1 hr by fluorescence based microplate reader analysis.

Experiment [2] can be described thus: Inhibition of LMP7/Beta 5 subunit chymotrypsin-like activity in human RPM18226 cell lysates using Suc-LLVY-AMC as substrate after 1 hr by fluorescence based microplate reader analysis. It counts as cell-free. Conditions: rpmi-8226.

On to `CC(C)C[C@H](NC(=O)[C@H](Cc1ccccc1)NC(=O)[C@@H]1CCCN1C(=O)c1cccc(O)n1)C(=O)[C@@]1(C)CO1`, for which the IC50 is 1010 nM in experiment [1] and > 10000 nM in experiment [2].
The matching figures for `CC(=O)NCC(=O)N1CCC[C@H]1C(=O)N[C@@H](Cc1ccc(NC(=O)c2cnccn2)cc1)C(=O)N[C@@H](CC(C)C)C(=O)[C@@]1(C)CO1`: 33.2 nM and > 10000 nM.
In the case of `CC(=O)NCC(=O)N1CCC[C@H]1C(=O)N[C@@H](Cc1ccc(-c2ccccc2)cc1)C(=O)N[C@@H](CC(C)C)C(=O)[C@@]1(C)CO1`, the IC50 was determined as 21.7 nM in experiment [1] and 5300 nM in experiment [2].
Take `CC(C)C[C@H](NC(=O)[C@H](Cc1ccccc1)NC(=O)[C@@H]1CCCN1C(=O)CN1CCOCC1=O)C(=O)[C@@]1(C)CO1`: the IC50 is 1040 nM in experiment [1] and > 10000 nM in experiment [2].
The matching figures for `Cc1cc(C(=O)NCC(=O)N2CCC[C@H]2C(=O)N[C@@H](CCc2ccccc2)C(=O)N[C@@H](CC(C)C)C(=O)[C@@]2(C)CO2)no1`: 132 nM and 10000 nM.
The like results for `CCc1ccc(C[C@H](NC(=O)[C@@H]2CCCN2C(=O)CNC(C)=O)C(=O)N[C@@H](CC(C)C)C(=O)[C@@]2(C)CO2)cc1` were, in that order, 134 nM and > 10000 nM.
The matching figures for `CC(C)C[C@H](NC(=O)[C@H](Cc1ccccc1)NC(=O)[C@@H]1CCCN1C(=O)CNC(=O)c1cccc(O)n1)C(=O)[C@@]1(C)CO1`: 143 nM and > 10000 nM.
As to `Cc1ncc(C(=O)NCC(=O)N2CCC[C@H]2C(=O)N[C@@H](CCc2ccccc2)C(=O)N[C@@H](CC(C)C)C(=O)[C@@]2(C)CO2)s1`, the IC50 was 103 nM in experiment [1] and > 10000 nM in experiment [2].
The matching figures for `CC(=O)NCC(=O)N1CCC[C@H]1C(=O)N[C@@H](Cc1ccc(C(C)(C)C)cc1)C(=O)N[C@@H](CC(C)C)C(=O)[C@@]1(C)CO1`: 121 nM and > 10000 nM.
With `CC(=O)NCC(=O)N1C[C@H](F)C[C@H]1C(=O)N[C@@H](Cc1ccccc1)C(=O)N[C@@H](CC(C)C)C(=O)[C@@]1(C)CO1`, the IC50 was 151 nM in experiment [1] and > 10000 nM in experiment [2].
As to `CC(=O)NCC(=O)N1CCC[C@H]1C(=O)N[C@@H](Cc1ccc(NC(=O)c2ccccc2)cc1)C(=O)N[C@@H](CC(C)C)C(=O)[C@@]1(C)CO1`, the IC50 in experiment [1] amounted to 72 nM; in experiment [2], 5080 nM.
The matching figures for `CC(=O)NCC(=O)N1CCC[C@H]1C(=O)N[C@@H](Cc1ccccc1)C(=O)N[C@@H](Cc1ccccc1)C(=O)[C@@]1(C)CO1`: 342 nM and > 10000 nM.
Regarding `COc1cnc(C(=O)NCC(=O)N2CCC[C@H]2C(=O)N[C@@H](Cc2ccccc2)C(=O)N[C@@H](CC(C)C)C(=O)[C@@]2(C)CO2)cn1`, the results for the IC50 in experiment [1] and in experiment [2] were 111 nM and > 10000 nM, respectively.
The like results for `CC(C)C[C@H](NC(=O)[C@H](Cc1ccc2ccccc2c1)NC(=O)[C@@H]1CCCN1C(=O)CNC(=O)c1cnccn1)C(=O)[C@@]1(C)CO1` were, in that order, 90.1 nM and 5760 nM.
The matching figures for `CCCC[C@H](NC(=O)[C@@H]1CCCN1C(=O)CNC(C)=O)C(=O)N[C@@H](CC(C)C)C(=O)[C@@]1(C)CO1`: 120 nM and > 10000 nM.
The matching figures for `CC(=O)NCC(=O)N1CCC[C@H]1C(=O)N[C@@H](CO)C(=O)N[C@@H](CC(C)C)C(=O)[C@@]1(C)CO1`: 120 nM and > 10000 nM.
`CC(C)C[C@H](NC(=O)[C@H](Cc1ccccc1)NC(=O)[C@@H]1CCCN1C(=O)CN1CCOCC1)C(=O)[C@@]1(C)CO1`: the IC50 in experiment [1] is 1220 nM; in experiment [2] it was > 10000 nM.
The matching figures for `CC(=O)NCC(=O)N1CCC[C@H]1C(=O)N[C@@H](Cc1ccc(NC(=O)CN2CCOCC2)cc1)C(=O)N[C@@H](CC(C)C)C(=O)[C@@]1(C)CO1`: 90.9 nM and > 10000 nM.
The like results for `CC(=O)NCC(=O)N1CC(=O)C[C@H]1C(=O)N[C@@H](Cc1ccccc1)C(=O)N[C@@H](CC(C)C)C(=O)[C@@]1(C)CO1` were, in that order, 622 nM and > 10000 nM.

One may read the IC50 as the midpoint of a concentration-inhibition curve.
